Here are results for 27 compounds from PubChem BioAssay (NCI).

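Exposure lasted 48 hours, with cells grown in 96-well plates and compounds tested at five concentrations. Abbreviation: GI50, concentration required for 50% inhibition of growth. TGI marks complete inhibition of growth.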

The test system of one assay is SNB-75 CNS. As to the kind of experiment: inhibition of tumour cell growth, NCI panel, 48 h.
`CN1C(=Nc2ccccc2)SC1=Nc1ccccc1` returned a TGI of 40.3 µM.
With `Oc1ccccc1/C=C/c1csnn1`, the TGI is above 100 µM.
Same read-out and setting: the value for `CC(=O)CC(=O)OC1CC(C)CCC1C(C)C` (centres undefined) was above 100 µM; that for `CP1(=O)CCCCC1` was above 100 µM; that for `Cc1ccc(S(=O)(=O)OC2CSS(=O)CC2OS(=O)(=O)c2ccc(C)cc2)cc1` (centres undefined) was 36.2 µM.
In the case of `COc1cc2c(cc1C)NC(=O)/C2=C/c1ccccn1`, the GI50 is 8.52 µM and the TGI was above 100 µM.
On to `O=[N+]([O-])c1cc(C(F)(F)F)cc([N+](=O)[O-])c1CCl`, for which the TGI is 8.77 µM.
`Nc1ccnc(=O)[nH]1`: the TGI was above 100 µM.
Still for that read-out and setting: the value for `COC(=O)/C(C)=C(/CCC1(C)OCCO1)O[Si](C)(C)C` was 71.7 µM; that for `CCOC(=O)N1CCN(C=S)CC1` was above 100 µM.
In turn, `COc1cc([C@@H]2OC[C@@H]3C(c4cc(OC)c5c(c4)OCO5)OC[C@@H]32)cc(OC)c1OC` (some centres undefined) yielded a TGI above 100 µM.
Same read-out and setting: for `CCc1cc(C(=O)OC)cn1C(=N)c1ccc(Cl)cc1` the value was above 100 µM.
On the same count and under the same terms, the value for `Cc1cc(=O)n(-c2ccccc2C)c(C)n1` was above 100 µM; that for `COc1ccc(Br)c(N/N=C2\CCCNC2=O)c1` was above 100 µM.
As to `COc1cc2c(c(OC)c1OC)-c1ccc(SC)c(=O)cc1C(CO)C2` (centres undefined), the GI50 was below 0.01 µM.
Turning to `Cc1ccc2nc(NC(=O)C(=O)C(C#N)c3nc4ccccc4s3)sc2c1` (centres undefined), the TGI is above 100 µM.
The same measure, in the same setting: the value for `CC(C)C1CC[C@@H](C)C[C@@]1(O)CC(N)=O` (some centres undefined) was above 100 µM.
For the compound `O=C([CH-]C(=O)c1ccccc1)c1ccccc1.O=C([CH-]C(=O)c1ccccc1)c1ccccc1.[La+3].[OH-].[OH3+]`, the GI50 was 5.02 µM and the TGI worked out at 21.6 µM.
As to `CN(CCCn1c2c(c3ccccc3c1=O)C(=O)c1ccccc1-2)CCCn1c2c(c3ccccc3c1=O)C(=O)c1ccccc1-2`, the GI50 was 1.74 µM and the TGI turned out to be 5.21 µM.
In the same order, the values of `CCC[CH2][Sn]1([CH2]CCC)[O]C(=O)c2cccnc2[O]1` are 2.09 µM and 6.78 µM.
Compound `CCOc1ccccc1N1C(=O)C(=O)C(c2nc3ccccc3o2)C(=O)C1=O` registered a TGI above 100 µM.
Take `CCS(CC)(CC)CC1CCCC2=CCC(P(=O)(c3ccccc3)c3ccccc3)CC21` (centres undefined): the TGI came to 25.4 µM.
The compound `CC(=O)OCC1OC(n2cnc(C(N)=S)c2N)C(OC(C)=O)C1OC(C)=O` (centres undefined) registered a TGI above 100 µM.
Compound `COc1ccc2n[se]nc2c1` registered a TGI above 100 µM.
For the compound `Cn1cc(C(=O)NCCC(=N)N)cc1NC(=O)C1=[N+](C)C=C(NC(=O)c2cccc(C(=O)NC3=CC(C(=O)Nc4cc(C(=O)NCCC(=N)N)cn4C)=[N+](C)C3)c2)C1`, the TGI was above 100 µM.

In a further assay the test system is RXF 393 renal. Put plainly: inhibition of tumour cell growth, NCI panel, 48 h.
Consider `CCN(CC)c1c(C(=O)/C=C/c2ccc(OC)cc2)c(-c2ccccc2)nn(C)c1=O`, for which the TGI is 25 µM.
Consider `Oc1ccccc1/C=C/c1csnn1`, for which the TGI was above 100 µM.
For the compound `CC(=O)CC(=O)OC1CC(C)CCC1C(C)C` (centres undefined), the TGI is above 100 µM.
`CP1(=O)CCCCC1` showed a TGI above 100 µM.
For `Cc1ccc(S(=O)(=O)OC2CSS(=O)CC2OS(=O)(=O)c2ccc(C)cc2)cc1` (centres undefined), the TGI stood at 20.8 µM.
On the same count and under the same terms, the value for `O=[N+]([O-])c1cc(C(F)(F)F)cc([N+](=O)[O-])c1CCl` was 5.09 µM; that for `Nc1ccnc(=O)[nH]1` was above 100 µM.
Still for that read-out and setting: the value for `COC(=O)/C(C)=C(/CCC1(C)OCCO1)O[Si](C)(C)C` was above 100 µM.
As for `CCOC(=O)N1CCN(C=S)CC1`, the TGI was above 100 µM.
Take `Cc1cc(=O)n(-c2ccccc2C)c(C)n1`: the TGI was above 100 µM.
As for `COc1cc2c(c(OC)c1OC)-c1ccc(SC)c(=O)cc1C(CO)C2` (centres undefined), the GI50 was below 0.01 µM.
As for `Cc1ccc2nc(NC(=O)C(=O)C(C#N)c3nc4ccccc4s3)sc2c1` (centres undefined), the TGI came out at 90.9 µM.
Consider `O=C([CH-]C(=O)c1ccccc1)c1ccccc1.O=C([CH-]C(=O)c1ccccc1)c1ccccc1.[La+3].[OH-].[OH3+]`, for which the GI50 was 2.99 µM and the TGI amounted to 29.6 µM.
On the same counts, the results for `CCC[CH2][Sn]1([CH2]CCC)[O]C(=O)c2cccnc2[O]1` are 2.02 µM and 3.82 µM.
`COC1CC(OS(=O)(=O)c2ccc([N+](=O)[O-])cc2)C(OC(=O)c2ccccc2)C(C)O1` (centres undefined) had a TGI above 100 µM.
In turn, `CCS(CC)(CC)CC1CCCC2=CCC(P(=O)(c3ccccc3)c3ccccc3)CC21` (centres undefined) came in with a TGI of 23.2 µM.
`COc1ccc2n[se]nc2c1` gave a TGI above 100 µM.
With `Cn1cc(C(=O)NCCC(=N)N)cc1NC(=O)C1=[N+](C)C=C(NC(=O)c2cccc(C(=O)NC3=CC(C(=O)Nc4cc(C(=O)NCCC(=N)N)cn4C)=[N+](C)C3)c2)C1`, the TGI was above 100 µM.

Another assay deals with NCI-H460 lung. Put plainly: inhibition of tumour cell growth, NCI panel, 48 h.
In turn, `CCN(CC)c1c(C(=O)/C=C/c2ccc(OC)cc2)c(-c2ccccc2)nn(C)c1=O` had a TGI of 35.4 µM.
Still for that read-out and setting: for `CN1C(=Nc2ccccc2)SC1=Nc1ccccc1` the value was above 100 µM.
Regarding `Oc1ccccc1/C=C/c1csnn1`, the TGI was above 100 µM.
For `CC(=O)CC(=O)OC1CC(C)CCC1C(C)C` (centres undefined), the TGI was above 100 µM.
On the same count and under the same terms, the value for `CP1(=O)CCCCC1` was above 100 µM.
Same read-out and setting: for `Cc1ccc(S(=O)(=O)OC2CSS(=O)CC2OS(=O)(=O)c2ccc(C)cc2)cc1` (centres undefined) the value was 46.4 µM.
On to `COc1cc2c(cc1C)NC(=O)/C2=C/c1ccccn1`, for which the GI50 was 3.56 µM and the TGI was above 100 µM.
In the case of `O=[N+]([O-])c1cc(C(F)(F)F)cc([N+](=O)[O-])c1CCl`, the TGI was 21.4 µM.
Regarding `Nc1ccnc(=O)[nH]1`, the TGI was above 100 µM.
In the case of `COC(=O)/C(C)=C(/CCC1(C)OCCO1)O[Si](C)(C)C`, the TGI is above 100 µM.
Same read-out and setting: for `CCOC(=O)N1CCN(C=S)CC1` the value was above 100 µM; for `COc1cc([C@@H]2OC[C@@H]3C(c4cc(OC)c5c(c4)OCO5)OC[C@@H]32)cc(OC)c1OC` (some centres undefined), above 100 µM.
`CCc1cc(C(=O)OC)cn1C(=N)c1ccc(Cl)cc1` had a TGI above 100 µM.
The same measure, in the same setting: the value for `Cc1cc(=O)n(-c2ccccc2C)c(C)n1` was above 100 µM.
